From the OligoGym collection come the findings set out here.

HELM strings list units from the 5' end as sugar, base in round brackets, then linkage (d deoxyribose, r ribose, m 2'-O-methyl, p phosphodiester). Strings are as the collection lists them; they lack the last nucleoside at the 3' end of the tested compound. [moe] = 2'-O-(2-methoxyethyl) (MOE); [sp] = phosphorothioate linkage; [m5C] = 5-methylcytosine

For this series, the target named is GFAP. The series is described as follows: mouse, dose not given. As to conditions: ASO.
Substance “RNA1{[moe]([m5C])[sp].[moe](A)p.[moe](G)p.[moe](T)p.[moe](A)p.[moe](T)p.d(T)[sp].d(A)[sp].d([m5C])[sp].d([m5C])[sp].d(T)[sp].d([m5C])[sp].d(T)[sp].d(A)[sp].d([m5C])[sp].d(T)[sp].[moe](A)p.[moe](G)[sp].[moe](T)}$$$$ (last 3' nucleoside missing)” yielded a 3 h FOB score of 0 score 0-7. As for “RNA1{[moe]([m5C])[sp].[moe](A)p.[moe](G)p.[moe](T)p.[moe](A)p.d(T)[sp].d(T)[sp].d(A)[sp].d([m5C])[sp].d([m5C])[sp].d(T)[sp].d([m5C])[sp].d(T)[sp].d(A)[sp].d([m5C])[sp].[moe](T)p.[moe](A)p.[moe](G)[sp].[moe](T)}$$$$ (last 3' nucleoside missing)”, the 3 h FOB score was 0 score 0-7. Turning to “RNA1{[moe]([m5C])[sp].[moe](A)p.[moe](G)p.[moe](T)p.d(A)[sp].d(T)[sp].d(T)[sp].d(A)[sp].d([m5C])[sp].d([m5C])[sp].d(T)[sp].d([m5C])[sp].d(T)[sp].d(A)[sp].[moe]([m5C])p.[moe](T)p.[moe](A)p.[moe](G)[sp].[moe](T)}$$$$ (last 3' nucleoside missing)”, the 3 h FOB score was 1 score 0-7. In the case of “RNA1{[moe]([m5C])[sp].[moe](A)p.[moe](G)p.[moe]([m5C])p.[moe](A)[sp].d(G)[sp].d(T)[sp].d(G)[sp].d([m5C])[sp].d([m5C])[sp].d([m5C])[sp].d(T)[sp].d(G)[sp].d(A)[sp].d(A)[sp].[moe](G)p.[moe](A)p.[moe](T)[sp].[moe](T)}$$$$ (last 3' nucleoside missing)”, the 3 h FOB score was found to be 1 score 0-7. As for “RNA1{[moe]([m5C])[sp].[moe](A)p.[moe](G)p.[moe]([m5C])p.[moe](A)[sp].d(T)[sp].d(T)[sp].d(T)[sp].d(G)[sp].d(T)[sp].d([m5C])[sp].d(T)[sp].d(T)[sp].[moe](T)p.[moe](A)p.[moe](T)[sp].[moe](T)}$$$$ (last 3' nucleoside missing)”, the figure is 3 score 0-7. Next, “RNA1{[moe]([m5C])[sp].[moe](A)p.[moe](G)p.[moe]([m5C])p.[moe](A)[sp].d(T)[sp].d(T)[sp].d(T)[sp].d(G)[sp].d(T)[sp].d([m5C])[sp].d(T)[sp].d(T)[sp].d(T)[sp].d(A)[sp].[moe](T)p.[moe](T)p.[moe](T)[sp].[moe](T)}$$$$ (last 3' nucleoside missing)”: 2 score 0-7; “RNA1{[moe]([m5C])[sp].[moe](A)p.[moe](G)p.[moe]([m5C])p.[moe](A)p.[moe](T)p.d(T)[sp].d(T)[sp].d(G)[sp].d(T)[sp].d([m5C])[sp].d(T)[sp].d(T)[sp].d(T)[sp].d(A)[sp].d(T)[sp].[moe](T)p.[moe](T)[sp].[moe](T)}$$$$ (last 3' nucleoside missing)”: 1 score 0-7. In the case of “RNA1{[moe]([m5C])[sp].[moe](A)p.[moe](G)p.[moe]([m5C])p.[moe]([m5C])p.[moe](T)p.d(G)[sp].d(G)[sp].d(T)[sp].d(T)[sp].d(A)[sp].d(G)[sp].d([m5C])[sp].d([m5C])[sp].d(T)[sp].d(T)[sp].[moe](T)p.[moe]([m5C])[sp].[moe](T)}$$$$ (last 3' nucleoside missing)”, the 3 h FOB score came to 4 score 0-7. As to “RNA1{[moe]([m5C])[sp].[moe](A)p.[moe](G)p.[moe]([m5C])p.[moe]([m5C])p.d(T)[sp].d(G)[sp].d(G)[sp].d(T)[sp].d(T)[sp].d(A)[sp].d(G)[sp].d([m5C])[sp].d([m5C])[sp].d(T)[sp].[moe](T)p.[moe](T)p.[moe]([m5C])[sp].[moe](T)}$$$$ (last 3' nucleoside missing)”, the 3 h FOB score is 5 score 0-7. In the case of “RNA1{[moe]([m5C])[sp].[moe](A)p.[moe](G)p.[moe]([m5C])p.d(A)[sp].d(T)[sp].d(T)[sp].d(T)[sp].d(G)[sp].d(T)[sp].d([m5C])[sp].d(T)[sp].d(T)[sp].d(T)[sp].[moe](A)p.[moe](T)p.[moe](T)p.[moe](T)[sp].[moe](T)}$$$$ (last 3' nucleoside missing)”, the 3 h FOB score is 2 score 0-7. “RNA1{[moe]([m5C])[sp].[moe](A)p.[moe](G)p.[moe]([m5C])p.d([m5C])[sp].d(T)[sp].d(G)[sp].d(G)[sp].d(T)[sp].d(T)[sp].d(A)[sp].d(G)[sp].d([m5C])[sp].d([m5C])[sp].[moe](T)p.[moe](T)p.[moe](T)p.[moe]([m5C])[sp].[moe](T)}$$$$ (last 3' nucleoside missing)”: the 3 h FOB score is 4 score 0-7.

On to “RNA1{[moe]([m5C])[sp].[moe](A)p.[moe](T)p.[moe](G)p.[moe](G)[sp].d([m5C])[sp].d([m5C])[sp].d(T)[sp].d(G)[sp].d(G)[sp].d([m5C])[sp].d([m5C])[sp].d(T)[sp].d(T)[sp].d(G)[sp].[moe](A)p.[moe](G)p.[moe](A)[sp].[moe](A)}$$$$ (last 3' nucleoside missing)”, for which the 3 h FOB score turned out to be 1 score 0-7.

As for “RNA1{[moe]([m5C])[sp].[moe](A)p.[moe](T)p.[moe](T)p.[moe](T)[sp].d(G)[sp].d(T)[sp].d([m5C])[sp].d(T)[sp].d(T)[sp].d(T)[sp].d(A)[sp].d(T)[sp].[moe](T)p.[moe](T)p.[moe](T)[sp].[moe](T)}$$$$ (last 3' nucleoside missing)”, the 3 h FOB score was 0 score 0-7. In the case of “RNA1{[moe]([m5C])[sp].[moe](A)p.[moe](T)p.[moe](T)p.[moe](T)[sp].d(G)[sp].d(T)[sp].d([m5C])[sp].d(T)[sp].d(T)[sp].d(T)[sp].d(A)[sp].d(T)[sp].d(T)[sp].d(T)[sp].[moe](T)p.[moe](T)p.[moe]([m5C])[sp].[moe]([m5C])}$$$$ (last 3' nucleoside missing)”, the 3 h FOB score came to 0 score 0-7.

“RNA1{[moe]([m5C])[sp].[moe](A)p.[moe](T)p.[moe](T)p.[moe](T)p.[moe](G)p.d(T)[sp].d([m5C])[sp].d(T)[sp].d(T)[sp].d(T)[sp].d(A)[sp].d(T)[sp].d(T)[sp].d(T)[sp].d(T)[sp].[moe](T)p.[moe]([m5C])[sp].[moe]([m5C])}$$$$ (last 3' nucleoside missing)”: the 3 h FOB score is 0 score 0-7.

In turn, “RNA1{[moe]([m5C])[sp].[moe](A)p.[moe](T)p.[moe](T)p.[moe]([m5C])[sp].d(A)[sp].d([m5C])[sp].d(T)[sp].d(A)[sp].d(A)[sp].d(T)[sp].d(A)[sp].d(T)[sp].[moe](T)p.[moe](T)p.[moe](A)[sp].[moe](A)}$$$$ (last 3' nucleoside missing)” registered a 3 h FOB score of 0 score 0-7. On to “RNA1{[moe]([m5C])[sp].[moe](A)p.[moe](T)p.[moe](T)p.d(T)[sp].d(G)[sp].d(T)[sp].d([m5C])[sp].d(T)[sp].d(T)[sp].d(T)[sp].d(A)[sp].d(T)[sp].d(T)[sp].[moe](T)p.[moe](T)p.[moe](T)p.[moe]([m5C])[sp].[moe]([m5C])}$$$$ (last 3' nucleoside missing)”, for which the 3 h FOB score was found to be 0 score 0-7.

On to “RNA1{[moe]([m5C])[sp].[moe](A)p.[moe](T)p.[moe]([m5C])p.[moe](T)[sp].d(G)[sp].d([m5C])[sp].d(T)[sp].d(T)[sp].d([m5C])[sp].d([m5C])[sp].d(T)[sp].d(G)[sp].d(G)[sp].d(A)[sp].[moe](G)p.[moe](T)p.[moe](G)[sp].[moe](G)}$$$$ (last 3' nucleoside missing)”, for which the 3 h FOB score was 1 score 0-7.

With “RNA1{[moe]([m5C])[sp].[moe](A)p.[moe]([m5C])p.[moe](A)p.[moe](T)[sp].d(T)[sp].d([m5C])[sp].d(A)[sp].d([m5C])[sp].d(T)[sp].d(A)[sp].d(A)[sp].d(T)[sp].[moe](A)p.[moe](T)p.[moe](T)[sp].[moe](T)}$$$$ (last 3' nucleoside missing)”, the 3 h FOB score amounted to 0 score 0-7.

On to “RNA1{[moe]([m5C])[sp].[moe](A)p.[moe]([m5C])p.[moe](A)p.[moe](T)p.[moe](T)p.d([m5C])[sp].d(A)[sp].d([m5C])[sp].d(T)[sp].d(A)[sp].d(A)[sp].d(T)[sp].d(A)[sp].d(T)[sp].d(T)[sp].[moe](T)p.[moe](A)[sp].[moe](A)}$$$$ (last 3' nucleoside missing)”, for which the 3 h FOB score stood at 0 score 0-7. As for “RNA1{[moe]([m5C])[sp].[moe](A)p.[moe]([m5C])p.[moe](A)p.[moe](T)p.d(T)[sp].d([m5C])[sp].d(A)[sp].d([m5C])[sp].d(T)[sp].d(A)[sp].d(A)[sp].d(T)[sp].d(A)[sp].d(T)[sp].[moe](T)p.[moe](T)p.[moe](A)[sp].[moe](A)}$$$$ (last 3' nucleoside missing)”, the figure is 0 score 0-7; as for “RNA1{[moe]([m5C])[sp].[moe](A)p.[moe]([m5C])p.[moe](A)p.d(T)[sp].d(T)[sp].d([m5C])[sp].d(A)[sp].d([m5C])[sp].d(T)[sp].d(A)[sp].d(A)[sp].d(T)[sp].d(A)[sp].[moe](T)p.[moe](T)p.[moe](T)p.[moe](A)[sp].[moe](A)}$$$$ (last 3' nucleoside missing)”, 0 score 0-7. The substance “RNA1{[moe]([m5C])[sp].[moe](A)p.[moe]([m5C])p.[moe](G)p.[moe](T)p.[moe]([m5C])p.d(A)[sp].d([m5C])[sp].d(A)[sp].d(T)[sp].d(T)[sp].d([m5C])[sp].d(A)[sp].d([m5C])[sp].d(T)[sp].d(A)[sp].[moe](A)p.[moe](T)[sp].[moe](A)}$$$$ (last 3' nucleoside missing)” yielded a 3 h FOB score of 0 score 0-7.

The substance “RNA1{[moe]([m5C])[sp].[moe](A)p.[moe]([m5C])p.[moe](G)p.[moe](T)p.d([m5C])[sp].d(A)[sp].d([m5C])[sp].d(A)[sp].d(T)[sp].d(T)[sp].d([m5C])[sp].d(A)[sp].d([m5C])[sp].d(T)[sp].[moe](A)p.[moe](A)p.[moe](T)[sp].[moe](A)}$$$$ (last 3' nucleoside missing)” had a 3 h FOB score of 0 score 0-7. Next, “RNA1{[moe]([m5C])[sp].[moe](A)p.[moe]([m5C])p.[moe](G)p.d(T)[sp].d([m5C])[sp].d(A)[sp].d([m5C])[sp].d(A)[sp].d(T)[sp].d(T)[sp].d([m5C])[sp].d(A)[sp].d([m5C])[sp].[moe](T)p.[moe](A)p.[moe](A)p.[moe](T)[sp].[moe](A)}$$$$ (last 3' nucleoside missing)”: 0 score 0-7.
